# In publication PMC10818546, “CYP1-Activation and Anticancer Properties of Synthetic Methoxylated Resveratrol Analogues” (Molecules, 2024):
# Where two headings read alike, the source gives them in different places.
# Key:
# MCF7 = experiment: MTT cytotoxicity assay, MCF7 cells (uninduced); assay type: cell-based, human; details: read-out: IC50 MCF7
# Experimental: (§1) The antiproliferative activity of the resveratrol analogues was investigated using a human breast cell line panel, which has been characterised for CYP1 expression in our laboratories. IC50 values for both cis- and trans-isomers were determined using a standard 3-[4,5-dimethylthiazol-2-yl]-2,5-diphenyl tetrazolium bromide (MTT) cell viability assay and are shown in Table 1 (trans-stilbene analogues) and Table 2 (cis-stilbene analogues).
# (§2) MCF7 cells are both ER positive and Ah receptor positive and have been well documented for their CYP1 expression, and it is known that treatment with TCDD elevates CYP1A1 and CYP1B1 expression. The cells were treated with DMSO (0.1%) for 24 h for constitutive expression, whereas for inducible CYP1 expression, the cells were treated with TCDD (10 nM) for 24 h.
# (§3) A standard MTT (3-[4,5-dimethylthiazol-2-yl]-2,5-diphenyl tetrazolium bromide) cell viability assay was employed to evaluate the cytotoxicity of the stilbenes prepared. The MTT assay is a rapid quantitative spectrophotometric method for determining cell growth (viability) due to necrosis or apoptosis in monolayer-cultured cell lines in response to external factors. It is widely employed to evaluate the cytotoxicity of potential medicinal agents.
# (§4) MCF7 cells were grown in RPMI-1640 medium with phenol red and 10% (v/v) heat-inactivated (heated to 56 °C for 45 min) foetal calf serum. MDA-468 cells were grown in RPMI-1640 medium with 10% (v/v) heat-inactivated foetal calf serum and L-glutamine (2 mM) without phenol red. MCF-10A cells were grown in Dulbecco’s modified Eagle’s medium/ Ham’s F-12 medium (1:1) with 5% (v/v) heat-inactivated foetal calf serum, epidermal growth factor (20 ng/mL), insulin ([…]) and hydrocortisone (500 ng/mL). Cells were maintained at 37 °C, 5% CO2/95% air with 100% humidity and passaged every 2–3 days using trypsin EDTA solution (0.25% w/v). Adhered cells at sub confluence were harvested for experimental use.
# (§5) Aliquots of cell suspensions (100 µL at 2 × 10^3 cells per ml) were dispensed into sterile 96-well microtiter flat-bottomed plates. For the MDA468 and MCF10A cell lines, the plates were incubated at 37 °C, 5% CO2/95% air with 100% humidity for 24 h prior to the addition of test compounds. For MCF7 cells, after allowing approximately 4 h for cells to adhere, 100 µL of medium containing TCDD (from 100 mM stock in DMSO) or medium with 0.2% (v/v) DMSO was added to give a final concentration of 10 nM TCDD and 0.1% (v/v) DMSO. After 24 h, the medium was aspirated and replaced with fresh medium (100 µL) before the addition of test compounds.
# (§6) Then, 100 µL aliquots of test compounds were added within 30 min into the wells from a 100 mM stock solution in DMSO and serially diluted to give final concentrations of […], 0.01, 0.003, 0.001 and 0.0003 µM. […] The cells were allowed to grow for 96 h at 5% CO2, 37 °C, to give 80–90% confluence in the control wells, after which 50 µL of 2 mg/mL MTT (final concentration 0.4 mg/mL) in sterile phosphate buffer was added to each well and the plates were further incubated for 2 h. All medium was aspirated and the formazan precipitate generated by viable cells was solubilised by 150 µL of DMSO. All the plates were vortexed and the absorbance at 540 nm was determined using a SpectraMax M5 plate reader (Molecular Devices, Wokingham, UK).
# (§7) Results were expressed as a percentage of the control value versus the negative logarithm of the molar drug concentration range using GraphPad Prism (Version 5.00). Relative toxicities of each compound within each cell line were expressed as 50% of growth inhibition (IC50). All determinations were carried out in quadruplicate.
# MCF7 (TCDD) = experiment: MTT cytotoxicity assay, TCDD-induced MCF7 cells; assay type: cell-based, human; details: for AF = activation factor = IC50 MCF7/MCF7 (TCDD): ratio of IC50 values
# Experimental: as §1, §2, §3, §4, §5, §6, §7
# MCF10A = experiment: MTT cytotoxicity assay, MCF10A non-tumour control cells; assay type: cell-based; details: Homo sapiens, MCF-10A, read-out: IC50 MCF10A
# Experimental: as §1
# MCF10A cells are non-tumourigenic human mammary epithelial in origin which have been spontaneously immortalised without chemical intervention. CYP1 activity in MCF10A cells is negligible. […] Thus, MCF10A cell line is commonly used as a control in cytotoxicity assays.
# as §3, §4, §5, §6, §7
# MDA468 = experiment: MTT cytotoxicity assay, MDA468 cells; assay type: cell-based, human; details: for IC50: Homo sapiens, read-out: IC50 MDA468; for TS = tumour selectivity = IC50 MCF10A/IC50 MDA468: ratio of IC50 values
# Experimental: as §1
# MDA468 cells represent an aggressive multi-drug-resistant tumour type and are ER negative but are aryl hydrocarbon (Ah) receptor positive in the presence of TCDD [46].
# as §3, §4, §5, §6, §7
# [1] = Homo sapiens, MCF7, 96 h, MTT assay, 96 h incubation, 37 °C, means of quadruplicate
# [2] = Homo sapiens, MCF7, MTT assay, 96 h incubation, cells induced with 10 nM TCDD for 24 h, read-out: IC50 MCF7 (TCDD)
# [3] = 96 h, MTT assay, 96 h incubation, non-tumour control cells
# [4] = Homo sapiens, MCF7, MTT assay, 96 h incubation, 37 °C, means of quadruplicate
# [5] = MTT assay, 96 h incubation, non-tumour control cells
SMILES,IC50 (MCF7; [1]) [µM],IC50 (MCF7 (TCDD); [2]) [µM],IC50 (MCF10A; [3]) [µM],"IC50 (MDA468; MTT assay, 96 h incubation) [µM]",TS = tumour selectivity = IC50 MCF10A/IC50 MDA468 (MDA468),IC50 (MCF7; [4]) [µM],IC50 (MCF10A; [5]) [µM],further results
"COc1ccc(/C=C\c2cc(OC)c(OC)c(OC)c2)cc1O [CA4, combretastatin A4, reference compound]",0.002,0.002,0.002,0.003,0.7,–,–,–
COc1ccc(/C=C/c2ccc(OC)cc2)cc1 [DMU205],28,28,100,100,1,–,–,–
COc1ccc(/C=C\c2cc(OC)cc(OC)c2)cc1 [DMU210],–,24,–,> 100,–,26,> 100,–
COc1ccc(/C=C\c2cc(OC)c(OC)c(OC)c2)cc1 [DMU213],–,–,–,–,four,–,–,"IC50 (MCF7; Homo sapiens, MCF7, 96 h): 2.5 µM; IC50 (MCF7 (TCDD); Homo sapiens, MCF7, read-out: IC50 MCF7 (TCDD)): 0.44 µM; IC50 (MCF10A; 96 h): 2 µM; fold less toxic to MDA-468 compared to DMU212 (MDA468): 500 fold; IC50 (MDA468; 96 h): 0.5 µM; TS = tumour selectivity = IC50 MCF10A/IC50 MDA468 (MDA468; listed as 213): 4"
COc1ccc(/C=C\c2cccc(C)c2)cc1 [DMU216C],26,30,> 100,> 100,–,–,–,–
COc1ccc(/C=C/c2cc(OC)c(OC)c(OC)c2)c(OC)c1 [DMU219],1.7,1.4,1.4,0.8,2,–,–,–
COc1cc(/C=C/c2ccc3c(c2)OCO3)cc(OC)c1OC [DMU220],–,2.3,–,0.99,four,3.4,3.9,TS = tumour selectivity = IC50 MCF10A/IC50 MDA468 (MDA468; listed as 220): 4
COc1ccc(/C=C\c2cc(OC)c(OC)c(OC)c2)c(OC)c1 [DMU222],0.06,0.005,0.06,0.005,10,–,–,"IC50 (MCF7; MTT assay, 96 h incubation, 37 °C, means of quadruplicate): 0.07 µM; IC50 (MCF7 (TCDD); MTT assay, 96 h incubation, cells induced with 10 nM TCDD for 24 h, read-out: IC50 MCF7 (TCDD)): 0.007 µM"
COc1ccc(CCc2cc(OC)c(OC)c(OC)c2)cc1 [DMU224],0.06,0.06,0.06,0.005,–,–,–,–
COc1ccc(/C=C\c2cccc(OC)c2)cc1 [DMU241C],–,26,–,> 100,–,29,> 100,–
COc1ccc(/C=C/c2cccc(OC)c2)cc1 [DMU241],–,24,–,> 100,–,27,> 100,–
CCOc1ccc(/C=C/c2cc(OC)c(OC)c(OC)c2)cc1 [DMU260],–,5,–,1.8,two,5,3.7,AF = activation factor = IC50 MCF7/MCF7 (TCDD) (MCF7 (TCDD)): one; TS = tumour selectivity = IC50 MCF10A/IC50 MDA468 (MDA468; listed as 260): 2
CCOc1ccc(/C=C\c2cc(OC)c(OC)c(OC)c2)cc1 [DMU261],–,0.13,–,0.07,0.9,0.04,0.06,–
COc1ccc(/C=C\c2ccc(OC)cc2)cc1 [DMU265],25,20,> 100,> 100,–,–,–,–
COc1ccc(/C=C/c2cc(OC)cc(OC)c2)cc1 [DMU271],–,14,–,> 100,–,14,> 100,–
COc1cc(/C=C/c2ccc(O)cc2)cc(OC)c1OC [DMU281],30,28,23,3.6,6,–,–,–
COc1ccc(/C=C/c2cc(OC)c(O)c(OC)c2)cc1 [DMU291],20,20,100,1,100,–,–,–
COc1ccc(/C=C/c2cc(OC)c(O)c(OC)c2)cc1O [DMU293],100,100,110,10,10,–,–,–
COc1cc(/C=C/c2ccc(O)cc2)cc(OC)c1O [DMU295],50,4.2,51,5.1,10,–,–,–
COc1cc(/C=C\c2ccc3c(c2)OCO3)cc(OC)c1OC [DMU299],–,0.05,–,20,one,0.05,20,AF = activation factor = IC50 MCF7/MCF7 (TCDD) (MCF7 (TCDD)): one; TS = tumour selectivity = IC50 MCF10A/IC50 MDA468 (MDA468; listed as 299): 1
COc1cc(/C=C/c2ccc(I)cc2)cc(OC)c1OC [DMU509],15,15,13,13,1,–,–,–
COc1cc(/C=C\c2ccc(I)cc2)cc(OC)c1OC [DMU510],0.06,0.06,0.01,0.006,2,–,–,–
COc1ccc(/C=C/c2ccc(OC)c(OC)c2OC)cc1 [DMU547],–,1,–,4.5,4,80,20,–
COc1ccc(/C=C\c2ccc(OC)c(OC)c2OC)cc1 [DMU548],–,7.1,–,30,–,8,100,–
COc1cc(/C=C/c2ccc(Cl)cc2)cc(OC)c1OC [DMU555],–,100,–,12,0.7,100,8,–
COc1cc(/C=C\c2ccc(Cl)cc2)cc(OC)c1OC [DMU556],–,0.8,–,7,5,0.8,35,–
COc1cc(/C=C/c2ccc(Br)cc2)cc(OC)c1OC [DMU557],–,8,–,7,3,7,20,–
COc1cc(/C=C\c2ccc(Br)cc2)cc(OC)c1OC [DMU558],–,0.05,–,0.04,1,0.08,0.05,–
COc1ccc2cc(/C=C/c3cc(OC)c(OC)c(OC)c3)ccc2c1 [DMU567],100,42,0.11,0.04,three,–,–,TS = tumour selectivity = IC50 MCF10A/IC50 MDA468 (MDA468; listed as 567): 3
